Holding throughout (test): relative viability (nuclei count vs DMSO), 5 days (fraction); higher = more cells survive
Compound in assay [1]: C1CC(C1)(C(=O)O)C(=O)O.[NH2-].[NH2-].[Pt+2] [Carboplatin] + Cc1cc(Nc2cc(N3CCN(C)CC3)nc(Sc3ccc(NC(=O)C4CC4)cc3)n2)n[nH]1 [Tozasertib] (partner 0.1 µM)
In short, it runs like this:
(§1)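 For relative viability, nuclei counts in treated wells were divided by those in vehicle wells. Lung cancer cell lines had been pin-tool dosed in 1536-well plates the day after seeding and cultured for 5 days, then fixed and stained in one step (final 0.05% Triton X-100, 1% formaldehyde, 1 ug/ml Hoechst) and imaged at 4×. Doses were one drug alone or a fixed anchor-drug dose plus five library-drug doses (not always all listed) in √10 steps, and values are duplicate-plate medians.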

Compound in assay [2]: NS(=O)(=O)OC[C@@H]1C[C@@H](n2ccc3c(N[C@H]4CCc5ccccc54)ncnc32)C[C@@H]1O [MLN4924] + N=C(N)NC(=N)NCCc1ccccc1 [Phenformin] (partner 250 µM)
In short, it runs like this: as §1

Compound in assay [3]: CC[C@H](C)N1C=C(C2=C(C=C(C=C21)C3=CN=C(C=C3)N4CCNCC4)C(=O)NCC5=C(C=C(NC5=O)C)C)C [GSK126] + C[C@]1(O)C[C@@H](c2nc(-c3ccc4ccc(-c5ccccc5)nc4c3)c3c(N)nccn32)C1 [Linsitinib] (partner 1 µM)
The gist of the method:
as §1

Compound in assay [4]: C1CC(C1)(C(=O)O)C(=O)O.[NH2-].[NH2-].[Pt+2] [Carboplatin] + O=C(CCCCCCC(=O)Nc1ccccc1)NO [Vorinostat] (partner 1 µM)
The gist of the method: as §1

Consider COR-L 105, for which the relative viability in assay [1] (first compound 0.08 µM) came out at 0.37; in assay [1] (first compound 0.253 µM) it was 0.337; in assay [1] (first compound 0.8 µM), 0.348; in assay [1] (first compound 2.53 µM) it was 0.359; in assay [1] (first compound 8 µM), 0.345; in assay [2] (first compound 0.04 µM), 0.567. Moreover, the relative viability in assay [2] (first compound 0.1265 µM) was 0.366; in assay [2] (first compound 0.4 µM), 0.325; in assay [2] (first compound 1.265 µM), 0.244; in assay [2] (first compound 4 µM) it was 0.301; in assay [3] (first compound 0.08 µM), 1.01; in assay [3] (first compound 0.253 µM), 1.06. The relative viability in assay [3] (first compound 0.8 µM) turned out to be 0.729; in assay [3] (first compound 2.53 µM) it was 0.997; in assay [3] (first compound 8 µM), 0.858; in assay [4] (first compound 0.08 µM) it was 0.817; in assay [4] (first compound 0.253 µM) it was 0.855; in assay [4] (first compound 0.8 µM) it was 0.92. The relative viability in assay [4] (first compound 2.53 µM) came out at 0.739; in assay [4] (first compound 8 µM), 0.48.

As to Calu-6, the relative viability in assay [3] (first compound 0.08 µM) stood at 1.14; in assay [3] (first compound 0.253 µM) it was 0.97; in assay [3] (first compound 2.53 µM), 0.989; in assay [3] (first compound 8 µM) it was 1.07.

On to ChaGo-K-1, for which the relative viability in assay [1] (first compound 0.08 µM) amounted to 0.231; in assay [1] (first compound 0.253 µM) it was 0.224; in assay [1] (first compound 0.8 µM), 0.215; in assay [1] (first compound 2.53 µM) it was 0.213; in assay [1] (first compound 8 µM) it was 0.192; in assay [2] (first compound 0.04 µM), 0.315. Also, the relative viability in assay [2] (first compound 0.1265 µM) was determined as 0.298; in assay [2] (first compound 0.4 µM) it was 0.24; in assay [2] (first compound 1.265 µM), 0.199; in assay [2] (first compound 4 µM), 0.176; in assay [4] (first compound 0.08 µM), 0.752; in assay [4] (first compound 0.253 µM), 0.704. The relative viability worked out at 0.649 in assay [4] (first compound 0.8 µM), 0.577 in assay [4] (first compound 2.53 µM) and 0.4 in assay [4] (first compound 8 µM).

On to EBC-1, for which the relative viability in assay [3] (first compound 0.08 µM) is 1.07; in assay [3] (first compound 0.253 µM) it was 1.02; in assay [3] (first compound 0.8 µM), 1; in assay [3] (first compound 2.53 µM), 0.74; in assay [3] (first compound 8 µM), 0.909.

As for EKVX, the relative viability in assay [1] (first compound 0.08 µM) was determined as 0.439; in assay [1] (first compound 0.253 µM), 0.371; in assay [1] (first compound 2.53 µM) it was 0.381; in assay [1] (first compound 8 µM) it was 0.38; in assay [2] (first compound 0.04 µM), 0.228; in assay [2] (first compound 0.1265 µM), 0.221. Further, the relative viability in assay [2] (first compound 0.4 µM) came to 0.239; in assay [2] (first compound 1.265 µM) it was 0.175; in assay [2] (first compound 4 µM) it was 0.138; in assay [3] (first compound 0.08 µM) it was 1.04; in assay [3] (first compound 0.253 µM), 1.12; in assay [3] (first compound 0.8 µM), 0.918. The relative viability turned out to be 1.01 in assay [3] (first compound 2.53 µM); 0.885 in assay [3] (first compound 8 µM); 0.746 in assay [4] (first compound 0.08 µM); 0.659 in assay [4] (first compound 0.253 µM); 0.682 in assay [4] (first compound 0.8 µM); 0.676 in assay [4] (first compound 2.53 µM). Moreover, the relative viability in assay [4] (first compound 8 µM) stood at 0.693.

With EMC-BAC-2, the relative viability was found to be 0.313 in assay [1] (first compound 0.08 µM); 0.292 in assay [1] (first compound 0.253 µM); 0.275 in assay [1] (first compound 0.8 µM); 0.266 in assay [1] (first compound 2.53 µM); 0.326 in assay [1] (first compound 8 µM); 0.37 in assay [2] (first compound 0.04 µM). Also, the relative viability in assay [2] (first compound 0.1265 µM) stood at 0.424; in assay [2] (first compound 0.4 µM) it was 0.296; in assay [2] (first compound 1.265 µM) it was 0.193; in assay [2] (first compound 4 µM), 0.218; in assay [3] (first compound 0.08 µM), 0.798; in assay [3] (first compound 0.253 µM) it was 0.841. The relative viability in assay [3] (first compound 0.8 µM) came to 0.771; in assay [3] (first compound 2.53 µM), 0.824; in assay [3] (first compound 8 µM) it was 0.839; in assay [4] (first compound 0.08 µM), 0.664; in assay [4] (first compound 0.253 µM), 0.416; in assay [4] (first compound 0.8 µM), 0.616. Moreover, the relative viability is 0.536 in assay [4] (first compound 2.53 µM) and 0.331 in assay [4] (first compound 8 µM).

EPLC-272H: the relative viability worked out at 0.314 in assay [1] (first compound 0.08 µM); 0.387 in assay [1] (first compound 0.253 µM); 0.181 in assay [1] (first compound 0.8 µM); 0.289 in assay [1] (first compound 2.53 µM); 0.291 in assay [1] (first compound 8 µM); 0.343 in assay [2] (first compound 0.04 µM). Further, the relative viability in assay [2] (first compound 0.1265 µM) came to 0.325; in assay [2] (first compound 0.4 µM), 0.0478; in assay [2] (first compound 1.265 µM) it was 0.103; in assay [2] (first compound 4 µM), 0.126; in assay [3] (first compound 0.08 µM), 1.4; in assay [3] (first compound 0.253 µM), 1.16. The relative viability in assay [3] (first compound 0.8 µM) is 1.06; in assay [3] (first compound 2.53 µM), 1.17; in assay [3] (first compound 8 µM), 1.23; in assay [4] (first compound 0.08 µM), 0.559; in assay [4] (first compound 0.253 µM), 0.377; in assay [4] (first compound 0.8 µM) it was 0.569. For the same cell line, the relative viability was 0.337 in assay [4] (first compound 2.53 µM) and 0.293 in assay [4] (first compound 8 µM).

Consider H3255, for which the relative viability in assay [1] (first compound 0.08 µM) was 0.829; in assay [1] (first compound 0.253 µM), 0.603; in assay [1] (first compound 0.8 µM), 0.577; in assay [1] (first compound 2.53 µM), 0.52; in assay [1] (first compound 8 µM), 0.525; in assay [2] (first compound 0.04 µM), 0.374. For the same cell line, the relative viability in assay [2] (first compound 0.1265 µM) was 0.331; in assay [2] (first compound 0.4 µM), 0.265; in assay [2] (first compound 1.265 µM) it was 0.264; in assay [2] (first compound 4 µM), 0.325; in assay [3] (first compound 0.08 µM) it was 0.99; in assay [3] (first compound 0.253 µM), 0.96. The relative viability in assay [3] (first compound 0.8 µM) came out at 0.945; in assay [3] (first compound 2.53 µM), 0.893; in assay [3] (first compound 8 µM), 0.874; in assay [4] (first compound 0.08 µM) it was 0.777; in assay [4] (first compound 0.253 µM), 0.815; in assay [4] (first compound 0.8 µM), 0.776. For the same cell line, the relative viability in assay [4] (first compound 2.53 µM) came to 0.72; in assay [4] (first compound 8 µM), 0.572.

Take HARA: the relative viability in assay [1] (first compound 0.08 µM) came to 0.146; in assay [1] (first compound 0.253 µM), 0.122; in assay [1] (first compound 0.8 µM) it was 0.09; in assay [1] (first compound 2.53 µM), 0.11; in assay [1] (first compound 8 µM), 0.11; in assay [2] (first compound 0.04 µM), 0.35. Besides, the relative viability in assay [2] (first compound 0.1265 µM) stood at 0.355; in assay [2] (first compound 0.4 µM), 0.177; in assay [2] (first compound 1.265 µM), 0.0555; in assay [2] (first compound 4 µM), 0.0476; in assay [3] (first compound 0.08 µM), 1.01; in assay [3] (first compound 0.253 µM), 0.898. Also, the relative viability in assay [3] (first compound 0.8 µM) was 0.872; in assay [3] (first compound 2.53 µM), 0.976; in assay [3] (first compound 8 µM), 0.836; in assay [4] (first compound 0.08 µM), 0.471; in assay [4] (first compound 0.253 µM) it was 0.561; in assay [4] (first compound 0.8 µM), 0.472. For the same cell line, the relative viability in assay [4] (first compound 2.53 µM) is 0.519; in assay [4] (first compound 8 µM) it was 0.35.

For the origin of these results see the supplement of paper PMC10307832.
